Data reported in patent US9365576B2, “Pyrrolopyrrolidinone compounds” (Novartis AG, priority 2012, dated 2016).

What follows are molecules tested against human MDM2 protein (amino acids 2-188) (Homo sapiens (Human), UniProt Q00987) (assay: TR-FRET assay, p53-MDM2 Assay 2 (modified)). Settings: TR-FRET; 0.1 nM MDM2, 0.1 nM Europium labeled streptavidin, Tecan genios Pro reader; read-out: IC50 p53-MDM2 Assay 2.
Format: binding
Procedure, shortened: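 IC50 values were curve-fitted from the time-resolved 665/620 nm emission ratio after 340 nm excitation. The assay combined 0.625 nM europium-streptavidin donor with 1.25 nM C-terminally biotinylated MDM2 2–188 (15 min, RT), followed by 15 min with 10 nM Cy5-labeled p53 18–26 acceptor peptide.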

Chain of human MDM2 protein (amino acids 2-188) (Q00987 2-188): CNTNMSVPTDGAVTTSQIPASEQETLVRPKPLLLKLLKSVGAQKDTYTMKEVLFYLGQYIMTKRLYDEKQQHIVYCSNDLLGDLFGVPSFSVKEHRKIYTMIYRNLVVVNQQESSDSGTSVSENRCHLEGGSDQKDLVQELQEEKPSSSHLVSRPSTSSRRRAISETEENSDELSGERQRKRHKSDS

| SMILES | IC50 |
| --- | --- |
| COc1ncc(-c2cc3c(n2C(C)C)C(c2ccc(C#N)cc2)N(c2cc(Cl)cn(C)c2=O)C3=O)c(OC)n1 (stereo not drawn) [Example 132, 4-[5-(5-Chloro-1-methyl-2-oxo-1,2-dihydro-pyridin-3-yl)-2-(2,4-dimethoxy-pyrimidin-5-yl)-1-isopropyl-4-oxo-1,4,5,6-tetrahydro-pyrrolo[3,4-b]pyrrol-6-yl]-benzonitrile] | 1150 pM |
| CNc1ncc(-c2cc3c(n2C(C)C)C(c2ccc(C#N)cc2)N(c2cc(Cl)c(=O)n(C)c2)C3=O)c(OC)n1 (stereo not drawn) [Example 133, 4-[5-(5-Chloro-1-methyl-6-oxo-1,6-dihydro-pyridin-3-yl)-1-isopropyl-2-(4-methoxy-2-methylamino-pyrimidin-5-yl)-4-oxo-1,4,5,6-tetrahydro-pyrrolo[3,4-b]pyrrol-6-yl]-benzonitrile] | 327 pM |
| COc1nc(N)ncc1-c1cc2c(n1C(C)C)C(c1ccc(C#N)cc1)N(c1c[nH]c(=O)c(Cl)c1)C2=O (stereo not drawn) [Example 134, 4-[2-(2-Amino-4-methoxy-pyrimidin-5-yl)-5-(5-chloro-6-oxo-1,6-dihydro-pyridin-3-yl)-1-isopropyl-4-oxo-1,4,5,6-tetrahydro-pyrrolo[3,4-b]pyrrol-6-yl]-benzonitrile] | 1250 pM |
| COc1ncc(-c2cc3c(n2C(C)C)C(c2ccc(C#N)cc2)N(c2c[nH]c(=O)c(Cl)c2)C3=O)c(OC)n1 (stereo not drawn) [Example 135, 4-[5-(5-Chloro-6-oxo-1,6-dihydro-pyridin-3-yl)-2-(2,4-dimethoxy-pyrimidin-5-yl)-1-isopropyl-4-oxo-1,4,5,6-tetrahydro-pyrrolo[3,4-b]pyrrol-6-yl]-benzonitrile] | 427 pM |
| COc1nc(N(C)C)ncc1-c1cc2c(n1C(C)C)C(c1ccc(C#N)cc1)N(c1c[nH]c(=O)c(Cl)c1)C2=O (stereo not drawn) [Example 136, 4-[5-(5-Chloro-6-oxo-1,6-dihydro-pyridin-3-yl)-2-(2-dimethylamino-4-methoxy-pyrimidin-5-yl)-1-isopropyl-4-oxo-1,4,5,6-tetrahydro-pyrrolo[3,4-b]pyrrol-6-yl]-benzonitrile] | 131 pM |
| CNc1ncc(-c2cc3c(n2C(C)C)C(c2ccc(C#N)cc2)N(c2c[nH]c(=O)c(Cl)c2)C3=O)c(OC)n1 (stereo not drawn) [Example 137, 4-[5-(5-Chloro-6-oxo-1,6-dihydro-pyridin-3-yl)-1-isopropyl-2-(4-methoxy-2-methylamino-pyrimidin-5-yl)-4-oxo-1,4,5,6-tetrahydro-pyrrolo[3,4-b]pyrrol-6-yl]-benzonitrile] | 321 pM |
| COc1nc(N)ncc1-c1cc2c(n1C(C)C)C(c1ccc(Cl)cc1)N(c1c[nH]c(=O)c(Cl)c1)C2=O (stereo not drawn) [Example 138, 2-(2-Amino-4-methoxy-pyrimidin-5-yl)-5-(5-chloro-6-oxo-1,6-dihydro-pyridin-3-yl)-6-(4-chloro-phenyl)-1-isopropyl-5,6-dihydro-1H-pyrrolo[3,4-b]pyrrol-4-one] | 341 pM |
| COc1ncc(-c2cc3c(n2C(C)C)C(c2ccc(Cl)cc2)N(c2c[nH]c(=O)c(Cl)c2)C3=O)c(OC)n1 (stereo not drawn) [Example 139, 5-(5-Chloro-6-oxo-1,6-dihydro-pyridin-3-yl)-6-(4-chloro-phenyl)-2-(2,4-dimethoxy-pyrimidin-5-yl)-1-isopropyl-5,6-dihydro-1H-pyrrolo[3,4-b]pyrrol-4-one] | 266 pM |
| COc1nc(N(C)C)ncc1-c1cc2c(n1C(C)C)C(c1ccc(Cl)cc1)N(c1c[nH]c(=O)c(Cl)c1)C2=O (stereo not drawn) [Example 140, 5-(5-Chloro-6-oxo-1,6-dihydro-pyridin-3-yl)-6-(4-chloro-phenyl)-2-(2-dimethylamino-4-methoxy-pyrimidin-5-yl)-1-isopropyl-1-5,6-dihydro-1H-pyrrolo[3,4-b]pyrrol-4-one] | 231 pM |
| COc1nc(N)ncc1-c1cc2c(n1C(C)C)C(c1ccc(Cl)cc1)N([C@H]1CC[C@H](OC)CC1)C2=O (stereo partly drawn) [Example 141, 2-(2-Amino-4-methoxy-pyrimidin-5-yl)-6-(4-chloro-phenyl)-1-isopropyl-5-(trans-4-methoxy-cyclohexyl)-5,6-dihydro-1H-pyrrolo[3,4-b]pyrrol-4-one] | 6850 pM |
| COc1nc(N(C)C)ncc1-c1cc2c(n1C(C)C)C(c1ccc(Cl)cc1)N([C@H]1CC[C@H](OC)CC1)C2=O (stereo partly drawn) [Example 142, 6-(4-Chloro-phenyl)-2-(2-dimethylamino-4-methoxy-pyrimidin-5-yl)-1-isopropyl-5-(trans-4-methoxy-cyclohexyl)-5,6-dihydro-1H-pyrrolo[3,4-b]pyrrol-4-one] | 740 pM |
| COc1ncc(-c2cc3c(n2C(C)C)C(c2ccc(Cl)cc2)N([C@H]2CC[C@H](OC)CC2)C3=O)c(OC)n1 (stereo partly drawn) [Example 143, 6-(4-Chloro-phenyl)-2-(2,4-dimethoxy-pyrimidin-5-yl)-1-isopropyl-5-(trans-4-methoxy-cyclohexyl)-5,6-dihydro-1H-pyrrolo[3,4-b]pyrrol-4-one] | 1690 pM |
| COc1ccccc1-c1cc2c(n1C(C)C)C(c1ccc(Cl)cc1C)N(c1cc(Cl)c(=O)n(C)c1)C2=O (stereo not drawn) [Example 144, 5-(5-Chloro-1-methyl-6-oxo-1,6-dihydro-pyridin-3-yl)-6-(4-chloro-2-methyl-phenyl)-1-isopropyl-2-(2-methoxy-phenyl)-5,6-dihydro-1H-pyrrolo[3,4-b]pyrrol-4-one] | 554 pM |
| CNC(=O)c1ccc(OC)c(-c2cc3c(n2C(C)C)C(c2ccc(Cl)cc2C)N(c2cc(Cl)c(=O)n(C)c2)C3=O)c1 (stereo not drawn) [Example 145, 3-[5-(5-Chloro-1-methyl-6-oxo-1,6-dihydro-pyridin-3-yl)-6-(4-chloro-2-methyl-phenyl)-1-isopropyl-4-oxo-1,4,5,6-tetrahydro-pyrrolo[3,4-b]pyrrol-2-yl]-4-methoxy-N-methyl-benzamide] | 187 pM |

Other lines, results leading:

| IC50 | SMILES |
| --- | --- |
| 216 pM | COc1ncc(-c2cc3c(n2C(C)C)C(c2ccc(Cl)cc2C)N(c2cc(Cl)c(=O)n(C)c2)C3=O)c(OC)n1 (stereo not drawn) [Example 146, 5-(5-Chloro-1-methyl-6-oxo-1,6-dihydro-pyridin-3-yl)-6-(4-chloro-2-methyl-phenyl)-2-(2,4-dimethoxy-pyrimidin-5-yl)-1-isopropyl-5,6-dihydro-1H-pyrrolo[3,4-b]pyrrol-4-one] |
| 164 pM | COc1nc(N(C)C)ncc1-c1cc2c(n1C(C)C)C(c1ccc(Cl)cc1C)N(c1cc(Cl)c(=O)n(C)c1)C2=O (stereo not drawn) [Example 147, 5-(5-Chloro-1-methyl-6-oxo-1,6-dihydro-pyridin-3-yl)-6-(4-chloro-2-methyl-phenyl)-2-(2-dimethylamino-4-methoxy-pyrimidin-5-yl)-1-isopropyl-5,6-dihydro-1H-pyrrolo[3,4-b]pyrrol-4-one] |
| 592 pM | COc1nc(N)ncc1-c1cc2c(n1C(C)C)C(c1ccc(Cl)cc1C)N(c1cc(Cl)c(=O)n(C)c1)C2=O (stereo not drawn) [Example 148, 2-(2-Amino-4-methoxy-pyrimidin-5-yl)-5-(5-chloro-1-methyl-6-oxo-1,6-dihydro-pyridin-3-yl)-6-(4-chloro-2-methyl-phenyl)-1-isopropyl-5,6-dihydro-1H-pyrrolo[3,4-b]pyrrol-4-one] |
| 110 pM | COc1cn(C)c(=O)cc1-c1cc2c(n1C(C)C)C(c1ccc(Cl)cc1)N(c1cc(Cl)ccc1C)C2=O (stereo not drawn) [Example 149, 5-(5-Chloro-2-methyl-phenyl)-6-(4-chloro-phenyl)-1-isopropyl-2-(5-methoxy-1-methyl-2-oxo-1,2-dihydro-pyridin-4-yl)-5,6-dihydro-1H-pyrrolo[3,4-b]pyrrol-4-one] |
| 254 pM | COc1cn(C)c(=O)cc1-c1cc2c(n1C(C)C)C(c1ccc(Cl)cc1)N(c1cc(Cl)c(=O)n(C)c1)C2=O (stereo not drawn) [Example 150, 5-(5-Chloro-1-methyl-6-oxo-1,6-dihydro-pyridin-3-yl)-6-(4-chloro-phenyl)-1-isopropyl-2-(5-methoxy-1-methyl-2-oxo-1,2-dihydro-pyridin-4-yl)-5,6-dihydro-1H-pyrrolo[3,4-b]pyrrol-4-one] |
| 243 pM | CNc1ncc(-c2cc3c(n2C(C)C)C(c2ccc(Cl)cc2C)N(c2cc(Cl)c(=O)n(C)c2)C3=O)c(OC)n1 (stereo not drawn) [Example 151, 5-(5-Chloro-1-methyl-6-oxo-1,6-dihydro-pyridin-3-yl)-6-(4-chloro-2-methyl-phenyl)-1-isopropyl-2-(4-methoxy-2-methylamino-pyrimidin-5-yl)-5,6-dihydro-1H-pyrrolo[3,4-b]pyrrol-4-one] |
| 166 pM | CNc1ncc(-c2cc3c(n2C(C)C)C(c2ccc(Cl)cc2)N(c2c[nH]c(=O)c(Cl)c2)C3=O)c(OC)n1 (stereo not drawn) [Example 152, 5-(5-Chloro-6-oxo-1,6-dihydro-pyridin-3-yl)-6-(4-chloro-phenyl)-1-isopropyl-2-(4-methoxy-2-methylamino-pyrimidin-5-yl)-5,6-dihydro-1H-pyrrolo[3,4-b]pyrrol-4-one] |
| 422 pM | COc1ncc(-c2cc3c(n2C(C)C)C(c2ccc(C#N)cc2)N(c2cc(Cl)c(=O)n(C)c2)C3=O)c(OC)n1 (stereo not drawn) [Example 153, 4-[5-(5-Chloro-1-methyl-6-oxo-1,6-dihydro-pyridin-3-yl)-2-(2,4-dimethoxy-pyrimidin-5-yl)-1-isopropyl-4-oxo-1,4,5,6-tetrahydro-pyrrolo[3,4-b]pyrrol-6-yl]-benzonitrile] |
| 328 pM | COc1nc(N)ncc1-c1cc2c(n1C(C)C)[C@H](c1ccc(C#N)cc1)N(c1cccc(Cl)c1F)C2=O [Example 154, 4-[(S)-2-(2-Amino-4-methoxy-pyrimidin-5-yl)-5-(3-chloro-2-fluoro-phenyl)-1-isopropyl-4-oxo-1,4,5,6-tetrahydro-pyrrolo[3,4-b]pyrrol-6-yl]-benzonitrile] |
| 43000 pM | COc1nc(N)ncc1-c1cc2c(n1C(C)C)[C@@H](c1ccc(C#N)cc1)N(c1cccc(Cl)c1F)C2=O [Example 155, 4-[(R)-2-(2-Amino-4-methoxy-pyrimidin-5-yl)-5-(3-chloro-2-fluoro-phenyl)-1-isopropyl-4-oxo-1,4,5,6-tetrahydro-pyrrolo[3,4-b]pyrrol-6-yl]-benzonitrile] |
